Laboratory results: PMC6295194 (Science translational medicine, 2018)
Structures can show the parent of a compound that is named as a salt.

Assays:
[1] = tested on: rhesus monkeys; set-up: species or system rhesus monkeys (Macaca mulatta); details: rhesus monkey, in vivo
[2] = tested on: rhesus monkeys; experiment: Physiological responses by radio-telemetry; format: in vivo, rhesus monkeys (Macaca mulatta); details: 1 mg/kg i.m., single monkey
[3] = tested on: rhesus monkeys; experiment: Warm water tail-withdrawal assay; format: in vivo, rhesus monkeys (Macaca mulatta); details: Macaca mulatta, sc, read-out: antinociception ED50
[4] = tested on: rhesus monkeys; experiment: Tolerance to antinociceptive effects after 4 weeks repeated administration; details: 2 injections daily for 4 weeks: morphine 1.8 mg/kg, AT-121 0.03 mg/kg
[5] = target: human NOP receptor (Homo sapiens, UniProt P41146); format: biochemical; details: percentage of stimulation of standard full agonist N/OFQ (100%)
human NOP receptor, sequence (P41146 whole entry): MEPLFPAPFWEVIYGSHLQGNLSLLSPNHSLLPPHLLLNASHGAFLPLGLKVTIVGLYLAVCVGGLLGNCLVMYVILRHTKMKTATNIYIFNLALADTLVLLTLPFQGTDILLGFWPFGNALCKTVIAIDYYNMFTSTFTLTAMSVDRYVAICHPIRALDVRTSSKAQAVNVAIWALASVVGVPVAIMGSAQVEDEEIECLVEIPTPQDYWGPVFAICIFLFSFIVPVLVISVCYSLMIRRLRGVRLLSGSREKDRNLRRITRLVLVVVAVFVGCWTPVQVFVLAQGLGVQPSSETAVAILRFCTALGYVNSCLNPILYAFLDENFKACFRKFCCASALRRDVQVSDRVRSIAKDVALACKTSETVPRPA

Molecule: O=C1CC[C@@]2(O)[C@H]3Cc4ccc(O)c5c4[C@@]2(CCN3CC2CC2)[C@H]1O5 [naltrexone, naltrexone HCl]
- effect of pretreatment on reinforcing effects of oxycodone [1]: effectively attenuated the reinforcing effects of oxycodone

Molecule: CC(=O)Oc1ccc2c3c1O[C@H]1[C@@H](OC(C)=O)C=C[C@H]4[C@@H](C2)N(C)CC[C@@]341 [heroin, diamorphine HCl]
- respiratory depression [2]: caused respiratory depression
- time to respiratory depression [2]: < 20 min

Molecule: buprenorphine HCl
- effect of pretreatment on reinforcing effects of oxycodone [1]: effectively attenuated the reinforcing effects of oxycodone

Molecule: CN1CC[C@]23c4c5ccc(O)c4O[C@H]2[C@@H](O)C=C[C@H]3[C@H]1C5 [Morphine, Morphine sulfate]
- ED50 [3]: 1 mg/kg
- tolerance to antinociceptive effects [4]: decrease in antinociceptive effects
- [35S]GTPγS NOP % Stim [5]: 5.4 ± 1%
